Laboratory results reported in US10981904B2, “1,3,4-thiadiazole compounds and their use in treating cancer” (Cancer Research Technology Limited, priority 2015, dated 2021).

System: NCI-H1703 cells
Test: GLS Cell Proliferation Assay (NCI-H1703 cell proliferation)
Assay type: cell-based
Conditions: Homo sapiens, NCI-H1703, 120 h, NCI-H1703 cells, 5 days; read-out: Assay c) Prolif Mean IC50
Description: The following assays were used to measure the effects of the compounds described herein: a) GLS Enzyme Potency Assay; b) GLS Cell Potency Assay; c) GLS Cell Proliferation Assay. During the description of the assays, generally: • i. The following abbreviations have been used: CO2=Carbon dioxide; DMEM=Dulbecco's Modified Eagle Medium; DMSO=Dimethyl sulphoxide; EDTA=Ethylenediaminetetraacetic acid; EGTA=Ethylene glycol tetraacetic acid; FCS=Foetal calf serum; h=Hour(s); NBS=Non-binding surface; SDS=Sodium dodecyl sulphate; TRIS=Tris(Hydroxymethyl)aminomethane. • ii. IC50 values were calculated using a smart fitting model in Genedata.
Assay c): GLS Cell Proliferation Assay
The ability of compounds to inhibit cell growth was measured using a 384 well plate NCI-H1703 cell proliferation assay. NCI-H1703 cells were grown in phenol red free RPMI1640, 10% FCS and 2 mM glutamine and seeded at a density of 750 cells per well in 40 μl of growth medium into clear-bottom 384 well assay plates (Corning product code 3712) and incubated for 24 h at 37° C., 5% CO2. […] DMSO concentration was maintained at 0.3% by back filling with DMSO solution. Plates were incubated for 5 days at 37° C., 5% CO2, Sytox Green and Saponin added to final concentration of 2 μM and 0.25% respectively and incubated for 6 h prior to analysis. […] IC50 values were calculated by curve fitting to max inhibition of day zero growth using GeneData software analysis.

Structure (SMILES) | IC50 [nM]
COCC(C(=O)Nc1nnc(N[C@@H]2CCN(c3ccc(C)nn3)C2)s1)c1ccccc1 (single isomer, unassigned) [Example 45(a)] | 2270
COC(C(=O)Nc1nnc(N[C@@H]2CCN(c3ccc(F)nn3)C2)s1)c1cccc(N2CC(F)(F)C2)c1 (stereo partly drawn) [Example 42, 2-[3-(3,3-difluoroazetidin-1-yl)phenyl]-N-[5-[[(3R)-1-(6-fluoropyridazin-3-yl)pyrrolidin-3-yl]amino]-1,3,4-thiadiazol-2-yl]-2-methoxy-acetamide] | 81.5
COc1cc(OC)cc([C@H](OC)C(=O)Nc2nnc(N[C@@H]3CCN(c4ccc(C)nn4)C3)s2)c1 (single isomer, unassigned) [Example 4(a)] | 2.95
COC1CN(c2cccc([C@H](OC)C(=O)Nc3nnc(N[C@@H]4CCN(c5cccnn5)C4)s3)c2)C1 (single isomer, unassigned) [Example 3(a)] | 2.65
COC[C@H](C(=O)Nc1nnc(N[C@@H]2CCN(c3ccc(C)nn3)C2)s1)c1ccccc1 (single isomer, unassigned) [45(b)] | 9.22
CO[C@H](C(=O)Nc1nnc(N[C@@H]2CCN(c3cccnn3)C2)s1)c1ccc(F)c(N2CC(F)C2)c1 (single isomer, unassigned) [8(b)] | 38.5
COc1cc(OC)cc([C@H](OC)C(=O)Nc2nnc(N[C@@H]3CCN(c4ccc(C)nn4)C3)s2)c1 (single isomer, unassigned) [4(b)] | 27.3
COC1CN(c2cccc([C@H](OC)C(=O)Nc3nnc(N[C@@H]4CCN(c5cccnn5)C4)s3)c2)C1 (single isomer, unassigned) [3(b)] | 272

Further lines, results first:

IC50 [nM] | Structure (SMILES)
699 | CO[C@H](C(=O)Nc1nnc(N[C@@H]2CCN(c3cccnn3)C2)s1)c1cccc(C2COC2)c1 (single isomer, unassigned) [18(b)]
13.5 | COC(C(=O)Nc1nnc(N[C@@H]2CCN(c3cccnn3)C2)s1)c1cccc(C2COC2)c1 (single isomer, unassigned) [Example 18(a)]
2.55 | CO[C@H](C(=O)Nc1nnc(N[C@@H]2CCN(c3cccnn3)C2)s1)c1cccc(N2CC(F)C2)c1 (single isomer, unassigned) [Example 1(a)]
133 | CO[C@H](C(=O)Nc1nnc(N[C@@H]2CCN(c3cccnn3)C2)s1)c1cccc(N2CC(F)C2)c1 (single isomer, unassigned) [Example 1(b)]
